Data taken from the supplement of paper PMC11061612.

Legend:
WM1552C (Melanoma) = assay: combination Emax (second highest fraction inhibited in the dose matrix, 72 h); higher = more inhibition; extreme values may be limits of the assay
In short: (§1)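 Cell lines in DMEM/F12 or RPMI with 10% FBS were plated in 1536-well plates, held 24 hours at 37°C, 5% CO2, then given two-drug dose matrices for 72 hours (DMSO typically 0.2%). Viability was read by CellTiter-Glo 2.0 luminescence and scaled as inhibition from 0 (vehicle wells) to 1 (blank wells). Combination Emax is the second-highest inhibition in the matrix; Bliss excess is observed combination effect minus expected EA + EB − EA·EB, EA and EB being single-agent effects.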

769-P (Kidney Carcinoma) = assay: as above
In short: as §1

PEO1 (Ovarian Carcinoma) = assay: as above
In short: as §1

[1] = test system: NCI-H2087 (Lung Adenocarcinoma); assay: as above
In short: as §1

[2] = test system: KYSE-220 (Esophageal Squamous Cell Carcinoma); assay: as above
In short: as §1

HCC70 (Breast Carcinoma) = assay: as above
In short: as §1

EW-7 (Ewing's Sarcoma) [3] = assay: as above
In short: as §1

[4] = test system: MHH-ES-1 (Ewing's Sarcoma); assay: as above
In short: as §1

[5] = test system: CGTH-W-1 (Thyroid Gland Carcinoma); assay: as above
In short: as §1

[6] = test system: JHH-2 (Hepatocellular Carcinoma); assay: as above
In short: as §1

[7] = test system: MDA-MB-436 (Breast Carcinoma); assay: as above
In short: as §1

[8] = test system: HCC1395 (Breast Carcinoma); assay: as above
In short: as §1

[9] = test system: A2780 (Ovarian Carcinoma); assay: as above
In short: as §1

[10] = test system: SK-HEP-1 (Hepatocellular Carcinoma); assay: as above
In short: as §1

[11] = test system: NCI-H1651 (Lung Adenocarcinoma); assay: as above
In short: as §1

[12] = test system: NCI-H441 (Lung Adenocarcinoma); assay: as above
In short: as §1

EW-7 (Ewing's Sarcoma) [13] = assay: Bliss excess, mean over the matrix (fraction); higher = more synergy
In short: as §1

[14] = test system: UACC-812 (Breast Carcinoma); assay: as above
In short: as §1

EB2 (Burkitt's Lymphoma) = assay: as above
In short: as §1

[15] = test system: SW620 (Colorectal Carcinoma); assay: as above
In short: as §1
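Throughout, for Bliss excess, mean over the matrix: after 72 h of two-drug dosing.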

## COc1cc2ncnc(Nc3ccc(F)c(Cl)c3)c2cc1OCCCN1CCOCC1 [Gefitinib] + CC(C)n1c(=O)n(C)c2cnc3cc(F)c(-c4ccc(OCCCN5CCCCC5)nc4)cc3c21 [AZD1390] (first compound max 10 µM, 7x7, partner max 0.3 µM)
WM1552C (Melanoma)
  combination Emax: 0.12
769-P (Kidney Carcinoma)
  combination Emax: 0.442
PEO1 (Ovarian Carcinoma)
  combination Emax: 0.175
[1]
  combination Emax: 0.131
[2]
  combination Emax: 0.431
HCC70 (Breast Carcinoma)
  combination Emax: 0.162
EW-7 (Ewing's Sarcoma) [3]
  combination Emax: 0.328
[4]
  combination Emax: 0.182
[5]
  combination Emax: 0
[6]
  combination Emax: 0.304
[7]
  combination Emax: 0.225
[8]
  combination Emax: 0.192
[9]
  combination Emax: 0.485
[10]
  combination Emax: 0.369
[11]
  combination Emax: 0.112
[12]
  combination Emax: 0.271
EW-7 (Ewing's Sarcoma) [13]
  Bliss excess: -0.0416
[14]
  Bliss excess: -0.0549
EB2 (Burkitt's Lymphoma)
  Bliss excess: -0.0774
[15]
  Bliss excess: -0.0762

## COc1cc2c(cc1OCCCCCOc1cc3c(cc1OC)C(=O)N1C=C(C)C[C@H]1C=N3)N=C[C@@H]1CC(C)=CN1C2=O [SG3199] + O=C(c1cc(Cc2n[nH]c(=O)c3ccccc23)ccc1F)N1CCN(C(=O)C2CC2)CC1 [Olaparib] (first compound max 0.001 µM, 7x7, partner max 10 µM)
WM1552C (Melanoma)
  combination Emax: 0.178
769-P (Kidney Carcinoma)
  combination Emax: 0.174
PEO1 (Ovarian Carcinoma)
  combination Emax: 0.0793
[1]
  combination Emax: 0.106
[2]
  combination Emax: 0.119
HCC70 (Breast Carcinoma)
  combination Emax: 0.129
EW-7 (Ewing's Sarcoma) [3]
  combination Emax: 0.303
[4]
  combination Emax: 0.703
[5]
  combination Emax: 0.168
[6]
  combination Emax: 0.192
[7]
  combination Emax: 0.121
[8]
  combination Emax: 0.181
[9]
  combination Emax: 0.422
[10]
  combination Emax: 0.21
[11]
  combination Emax: 0.274
[12]
  combination Emax: 0.131
EW-7 (Ewing's Sarcoma) [13]
  Bliss excess: -0.0341
[14]
  Bliss excess: -0.0377
EB2 (Burkitt's Lymphoma)
  Bliss excess: -0.0259
[15]
  Bliss excess: -0.0303

## N#Cc1cnc(Nc2cc(NC[C@H]3CNCCO3)c(C(F)(F)F)cn2)cn1 [SRA737] + C=CCn1c(=O)c2cnc(Nc3ccc(N4CCN(C)CC4)cc3)nc2n1-c1cccc(C(C)(C)O)n1 [AZD1775] (first compound max 10 µM, partner max 1 µM)
WM1552C (Melanoma)
  combination Emax: 0.751
769-P (Kidney Carcinoma)
  combination Emax: 0.9
PEO1 (Ovarian Carcinoma)
  combination Emax: 0.48
[1]
  combination Emax: 0.645
[2]
  combination Emax: 0.711
HCC70 (Breast Carcinoma)
  combination Emax: 0.848
EW-7 (Ewing's Sarcoma) [3]
  combination Emax: 0.954
[4]
  combination Emax: 0.667
[5]
  combination Emax: 0.432
[6]
  combination Emax: 0.652
[7]
  combination Emax: 0.274
[8]
  combination Emax: 0.753
[9]
  combination Emax: 0.966
[10]
  combination Emax: 0.23
[11]
  combination Emax: 0.713
[12]
  combination Emax: 0.446
EW-7 (Ewing's Sarcoma) [13]
  Bliss excess: 0.0142
[14]
  Bliss excess: 0.0343
EB2 (Burkitt's Lymphoma)
  Bliss excess: 0.0335
[15]
  Bliss excess: -0.0272

## N#Cc1cnc(Nc2cc(NC[C@H]3CNCCO3)c(C(F)(F)F)cn2)cn1 [SRA737] + CCc1c2c(nc3ccc(O)cc13)-c1cc3c(c(=O)n1C2)COC(=O)[C@]3(O)CC [SN-38] (first compound max 10 µM, 7x7, partner max 0.3 µM)
WM1552C (Melanoma)
  combination Emax: 0.638
769-P (Kidney Carcinoma)
  combination Emax: 0.9
PEO1 (Ovarian Carcinoma)
  combination Emax: 0.746
[1]
  combination Emax: 0.918
[2]
  combination Emax: 0.905
HCC70 (Breast Carcinoma)
  combination Emax: 0.674
EW-7 (Ewing's Sarcoma) [3]
  combination Emax: 0.976
[4]
  combination Emax: 0.975
[5]
  combination Emax: 0.701
[6]
  combination Emax: 0.724
[7]
  combination Emax: 0.549
[8]
  combination Emax: 0.766
[9]
  combination Emax: 0.85
[10]
  combination Emax: 0.802
[11]
  combination Emax: 0.835
[12]
  combination Emax: 0.663
EW-7 (Ewing's Sarcoma) [13]
  Bliss excess: -0.0597
[14]
  Bliss excess: -0.0309
EB2 (Burkitt's Lymphoma)
  Bliss excess: -0.0723
[15]
  Bliss excess: 0.0405

## N#Cc1cnc(Nc2cc(NC[C@H]3CNCCO3)c(C(F)(F)F)cn2)cn1 [SRA737] + Nc1ccn([C@@H]2O[C@H](CO)[C@@H](O)C2(F)F)c(=O)n1 [Gemcitabine] (first compound max 10 µM, 7x7, partner max 0.3 µM)
WM1552C (Melanoma)
  combination Emax: 0.796
769-P (Kidney Carcinoma)
  combination Emax: 0.851
PEO1 (Ovarian Carcinoma)
  combination Emax: 0.728
[1]
  combination Emax: 0.585
[2]
  combination Emax: 0.78
HCC70 (Breast Carcinoma)
  combination Emax: 0.823
EW-7 (Ewing's Sarcoma) [3]
  combination Emax: 1
[4]
  combination Emax: 0.986
[5]
  combination Emax: 0.846
[6]
  combination Emax: 0.708
[7]
  combination Emax: 0.579
[8]
  combination Emax: 0.725
[9]
  combination Emax: 0.92
[10]
  combination Emax: 0.724
[11]
  combination Emax: 0.735
[12]
  combination Emax: 0.58
EW-7 (Ewing's Sarcoma) [13]
  Bliss excess: 0.0349
[14]
  Bliss excess: -0.054
EB2 (Burkitt's Lymphoma)
  Bliss excess: -0.025
[15]
  Bliss excess: 0.058

## N#Cc1cnc(Nc2cc(NC[C@H]3CNCCO3)c(C(F)(F)F)cn2)cn1 [SRA737] + O=c1[nH]cc(F)c(=O)[nH]1 [5-Fluorouracil] (first compound max 10 µM, 7x7, partner max 20 µM)
WM1552C (Melanoma)
  combination Emax: 0.728
769-P (Kidney Carcinoma)
  combination Emax: 0.756
PEO1 (Ovarian Carcinoma)
  combination Emax: 0.458
[1]
  combination Emax: 0.309
[2]
  combination Emax: 0.497
HCC70 (Breast Carcinoma)
  combination Emax: 0.743
EW-7 (Ewing's Sarcoma) [3]
  combination Emax: 0.814
[4]
  combination Emax: 0.697
[5]
  combination Emax: 0.646
[6]
  combination Emax: 0.623
[7]
  combination Emax: 0.409
[8]
  combination Emax: 0.653
[9]
  combination Emax: 0.72
[10]
  combination Emax: 0.416
[11]
  combination Emax: 0.479
[12]
  combination Emax: 0.381
EW-7 (Ewing's Sarcoma) [13]
  Bliss excess: -0.0504
[14]
  Bliss excess: 0.023
EB2 (Burkitt's Lymphoma)
  Bliss excess: -0.0038
[15]
  Bliss excess: -0.0353

## C[C@@H](c1ccc2nccn2c1)n1nnc2ncc(-c3cnn(C)c3)nc21 [Savolitinib] + CC1(C)CCC(CN2CCN(c3ccc(C(=O)NS(=O)(=O)c4ccc(NCC5CCOCC5)c([N+](=O)[O-])c4)c(Oc4cnc5[nH]ccc5c4)c3)CC2)=C(c2ccc(Cl)cc2)C1 [Venetoclax] (first compound max 1 µM, 7x7, partner max 1 µM)
WM1552C (Melanoma)
  combination Emax: 0.0794
769-P (Kidney Carcinoma)
  combination Emax: 0.0824
PEO1 (Ovarian Carcinoma)
  combination Emax: 0.219
[1]
  combination Emax: 0.184
[2]
  combination Emax: 0.146
HCC70 (Breast Carcinoma)
  combination Emax: 0.165
EW-7 (Ewing's Sarcoma) [3]
  combination Emax: 0.118
[4]
  combination Emax: 0.185
[5]
  combination Emax: 0.0942
[6]
  combination Emax: 0.0863
[7]
  combination Emax: 0.28
[8]
  combination Emax: 0.247
[9]
  combination Emax: 0.14
[10]
  combination Emax: 0.164
[11]
  combination Emax: 0.186
[12]
  combination Emax: 0.171
EW-7 (Ewing's Sarcoma) [13]
  Bliss excess: -0.0242
[14]
  Bliss excess: -0.043
EB2 (Burkitt's Lymphoma)
  Bliss excess: -0.0391
[15]
  Bliss excess: -0.0727

## C[C@@H](c1ccc2nccn2c1)n1nnc2ncc(-c3cnn(C)c3)nc21 [Savolitinib] + Cc1c2c(nn1C)CSCc1cc(n(C)n1)CSc1cc(c3ccccc3c1)OCCCc1c(C(=O)O)n(C)c3c-2c(Cl)ccc13 [AZD5991] (first compound max 1 µM, 7x7, partner max 1 µM)
WM1552C (Melanoma)
  combination Emax: 0.554
769-P (Kidney Carcinoma)
  combination Emax: 0.158
PEO1 (Ovarian Carcinoma)
  combination Emax: 0.218
[1]
  combination Emax: 0.204
[2]
  combination Emax: 0.164
HCC70 (Breast Carcinoma)
  combination Emax: 0.844
EW-7 (Ewing's Sarcoma) [3]
  combination Emax: 0.133
[4]
  combination Emax: 0.38
[5]
  combination Emax: 0.173
[6]
  combination Emax: 0.142
[7]
  combination Emax: 0.18
[8]
  combination Emax: 0.478
[9]
  combination Emax: 0.499
[10]
  combination Emax: 0.237
[11]
  combination Emax: 0.183
[12]
  combination Emax: 0.221
EW-7 (Ewing's Sarcoma) [13]
  Bliss excess: -0.0336
[14]
  Bliss excess: 0.0174
EB2 (Burkitt's Lymphoma)
  Bliss excess: -0.0501
[15]
  Bliss excess: -0.0537
